Data reported in article PMC1810525, “Antagonism of the prostaglandin D2 receptor CRTH2 attenuates asthma pathology in mouse eosinophilic airway inflammation” (Respiratory Research, 2007).

Columns and labels:
Phospholipase A2 = conditions: 10 μM, enzymatic
Method: TM30089 was tested at a final concentration of 10 μM in either binding or functional assays on several 7TM receptors, and in enzymatic assays on selected enzymes including those involved in arachidonic acid metabolism. All assays were performed using recombinant human receptors and enzymes, and included the appropriate controls for assay validation. Enzymatic and binding assays, except for muscarinic binding, were performed by CEREP in vitro pharmacology profiling services. Full description of methods and references is available on the CEREP Web site. […] Functional assays were performed using recombinant human receptors and enzymes, and included the appropriate controls for C3a, C5a, ChemR23 receptors by determining the inhibitory potency of TM30089 in InsP assays essentially as described above. For stimulation of C3a, C5a, and ChemR23 receptors in InsP assays the following agonists were used: human recombinant C3a (C3a receptor), human recombinant C5a (C5a receptor), and the nonapeptide Chemerin (ChemR23).

[1] = tested on: OVA-challenged BALB/c mice; test: Mouse model of allergic asthma (OVA), lung tissue eosinophils and mucus cells histology; type: in vivo; conditions: 5 mg/kg orally twice daily days 14 and 15, OVA-challenged mice, 24 hr after last challenge; p < 0.05 vs vehicle
Method: Female BALB/c mice about 6 weeks of age (MoB A/S; Ry, Denmark) were kept in well-controlled animal housing facilities and fed ad libitum. The study was approved by the Regional Ethics Committee in Malmoe-Lund, Sweden. All groups of mice (n = 10 in each group) were immunized by intraperitoneal (i.p) injections of ovalbumin (OVA, 10 μg per injection; grade V, Sigma, St Louis, Mo) absorbed to alum adjuvant (Al(OH)3; Sigma) at day 0 as described previously. […] Control animals received saline challenge. Animals were sacrificed 24 hr after the last allergen challenge by pentobarbital i.p followed by bronchoalveolar lavage (BAL) and lung tissue sampling. In preliminary studies it was ascertained that daily allergen challenges for only a few days sufficed to produce a significant airway tissue eosinophilia as well as goblet cell hyperplasia. On days 14 and 15 mice were treated twice daily with TM30089 and ramatroban (BAY3405), 5 mg/kg orally. […] Drugs were administered 30 minutes before and 4 hr after each challenge. The dose of ramatroban was selected in accord with previous reports. Furthermore, ramatroban and TM30089 differ chemically merely by the move of one carbon atom from the carboxyl side chain in ramatroban to the sulfonamide nitrogen in TM30089 - thus they have the same molecular weight and other important structural features in common - so it is highly reasonable to assume they will have very similar PK properties. […] Eosinophils were detected by histochemical visualization of cyanide-resistant eosinophil peroxidase (EPO) activity. In brief, 5 μm cryo sections were incubated for 8 min at room temperature in PBS buffer (pH 7.4) supplemented with 3.3-diaminobenzidine tetrahydrochloride (60 mg/100 ml; Sigma), 30% H2O2 (0.3 ml/100 ml), and NaCN (120 mg/100 ml). Slides were then rinsed in tap water and mounted in […] medium (Merck, Darmstadt, Germany). […] Although the focus in this study was on tissue pathology BAL was also carried out (see below). Histology analyses were performed and quantified in a blinded manner. To compare histological data, the non-parametric Kruskal-Wallis test and followed by Connover's test was applied using Analyze ItTM (Analyse-it software Ltd., Leeds, UK). Data are expressed as mean ± SEM. A value of p < 0.05 was considered statistically significant.

mTP [2] = molecular target: T1, mTP (Mus musculus, UniProt P30987); test: Inositol phosphate accumulation assay, HEK cells transfected with mTP (Schild analysis vs U46619); type: cell-based
T1 construct: expressed in transfected cells; host or cells: HEK293 (transient, pcDNA3.1(+))
T1 sequence (P30987 1-341): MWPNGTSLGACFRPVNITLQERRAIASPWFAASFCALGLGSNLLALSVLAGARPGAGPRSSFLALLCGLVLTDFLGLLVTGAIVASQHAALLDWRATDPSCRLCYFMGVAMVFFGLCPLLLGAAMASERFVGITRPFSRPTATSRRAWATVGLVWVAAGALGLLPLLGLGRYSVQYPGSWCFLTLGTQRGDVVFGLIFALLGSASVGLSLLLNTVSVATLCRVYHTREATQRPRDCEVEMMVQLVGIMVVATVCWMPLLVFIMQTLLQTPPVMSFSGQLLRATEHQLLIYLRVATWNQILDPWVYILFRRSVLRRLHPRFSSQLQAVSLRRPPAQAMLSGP
Description: (§1) The coding sequence of mCRTH2 (genbank accession no. AF054507) was amplified by PCR from mouse hippocampus cDNA and inserted into the pcDNA3.1(+) expression vector (invitrogen). A HEK293 cell line, stably expressing mCRTH2 (hereafter referred to as mCRTH2-HEK cells) was generated under G418 (Gibco #11811) selection and used as described below in whole cell binding and functional inositol phosphate accumulation assays. The coding sequence of mTP (genbank accession no. D10849) was amplified by PCR from mouse spleen cDNA and inserted into pcDNA3.1(+). HEK293 cells were transiently transfected with mTP as described and assayed after 48 hr as outlined below.
mCRTH2-HEK or HEK cells transiently transfected with mTP were seeded at a density of 30.000 cells/well in poly-D-lysine coated 96-well tissue culture plates and labeled by overnight incubation in medium containing 5 μCi myo- [2-^3H]-inositol (TRK911, Amersham Biosciences). After washing, cells were stimulated with the respective ligands in the presence of 5 mM LiCl (HBSS, GIBCO cat. 14025–050, 45 min, 37°C) and the inositol phosphate fraction was quantified using a scintillation proximity assay (SPA) as described previously. To facilitate inositol phosphate generation by the Gi-selective CRTH2 receptor, mCRTH2-HEK cells were transiently transfected with a promiscuous Gα protein [29].
was performed using the Prism 3.0 software (GraphPad Software, San Diego) as described previously with the following exceptions: Binding data from competition binding assays were normalized to percent of specific binding of [^3H]PGD2 or [^3H]SQ29548 and the Ki was then determined using the Cheng-Prusoff equation Ki = IC50/(1+L/Kd), where L is the concentration of radioactive ligand and Kd is its dissociation constant. For Schild analysis, global fitting using the Gaddum/Schild competitive interaction model was applied after the functional concentration-response curves for the agonists PGD2 or U46619 in the absence or presence of various antagonist concentrations were normalized to percent of the maximal response obtained by agonist alone.

mTP [3] = molecular target: T1, mTP; test: mTP whole cell competition binding ([3H]SQ29548); conditions: displacement of [3H]SQ29548, HEK cells transfected with mTP
Description: as §1
Binding assays were performed essentially as described previously. […] Total and nonspecific binding were determined in the absence and presence of 10 μM PGD2 for mCRTH2 and 10 μM U46619 for mTXA2 receptors.
was performed using the Prism 3.0 software (GraphPad Software, San Diego) as described previously with the following exceptions: Binding data from competition binding assays were normalized to percent of specific binding of [^3H]PGD2 or [^3H]SQ29548 and the Ki was then determined using the Cheng-Prusoff equation Ki = IC50/(1+L/Kd), where L is the concentration of radioactive ligand and Kd is its dissociation constant. […]

Question: For CN(C1CCc2c(c3ccccc3n2CC(=O)O)C1)S(=O)(=O)c1ccc(F)cc1 (stereo not shown) [TM30089], which “% of control Phospholipase A2” value (Phospholipase A2) is on record?
Answer: Its value is 101.5 ± 1.0%.

Question: And the “allergen challenge-induced mucus cell hyperplasia” value [1]?
Answer: Its value is “significantly diminished”.

Question: And the “allergen challenge-induced peribronchial lung tissue eosinophilia” value [1]?
Answer: Its value is “significantly diminished”.

Question: What about the “effect on signaling of mTP” value (mTP [2]; InsP functional assay) of the same compound?
Answer: Its value is “does not interfere with signaling of mTP”.

Question: What about the “pKi mTP” value (mTP [3]) of the same compound?
Answer: The value was 5.30 ± 0.03.

Question: How did the “allergen challenge-induced mucus cell hyperplasia” value [1] turn out when O=C(O)CCn1c2c(c3ccccc31)C[C@H](NS(=O)(=O)c1ccc(F)cc1)CC2 [ramatroban, reference compound] was run?
Answer: The value was “significantly diminished”.

Question: What about the “allergen challenge-induced peribronchial lung tissue eosinophilia” value [1] of the same compound?
Answer: The value was “significantly diminished”.

Question: And the “Schild slope mTP” value (mTP [2]; Schild analysis, U46619 concentration-response, InsP)?
Answer: Its value is 1.35 ± 0.06.

Question: And the Kb (mTP [2]; Schild analysis, U46619 concentration-response, InsP, read-out: pA2 mTP (converted))?
Answer: Its Kb is 0.437 nM.

Question: And the Ki (mTP [3]; read-out: pKi mTP (converted))?
Answer: The Ki was 1.2 nM.
